Each compound was assayed against POLRMT (Homo sapiens (Human), UniProt O00411) (assay: homogeneous TR-FRET assay of mitochondrial transcription (inhibition of POLRMT)). Conditions: 7.5 nM POLRMT, 15 nM TFB2M, 30 nM TFAM, 0.5 nM DNA template, 500 μM NTPs, 37° C. for 60 minutes.
Type: biochemical
Summary of the method: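 POLRMT transcription from linearized pUC-LSP DNA template; RNA product detected by hybridization of ATTO647 acceptor (1 nM) and biotinylated donor (3 nM) probes plus Europium-streptavidin. Reaction stopped with EDTA/700 mM NaCl buffer, pH 7.5.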

POLRMT, sequence (O00411 42-1230): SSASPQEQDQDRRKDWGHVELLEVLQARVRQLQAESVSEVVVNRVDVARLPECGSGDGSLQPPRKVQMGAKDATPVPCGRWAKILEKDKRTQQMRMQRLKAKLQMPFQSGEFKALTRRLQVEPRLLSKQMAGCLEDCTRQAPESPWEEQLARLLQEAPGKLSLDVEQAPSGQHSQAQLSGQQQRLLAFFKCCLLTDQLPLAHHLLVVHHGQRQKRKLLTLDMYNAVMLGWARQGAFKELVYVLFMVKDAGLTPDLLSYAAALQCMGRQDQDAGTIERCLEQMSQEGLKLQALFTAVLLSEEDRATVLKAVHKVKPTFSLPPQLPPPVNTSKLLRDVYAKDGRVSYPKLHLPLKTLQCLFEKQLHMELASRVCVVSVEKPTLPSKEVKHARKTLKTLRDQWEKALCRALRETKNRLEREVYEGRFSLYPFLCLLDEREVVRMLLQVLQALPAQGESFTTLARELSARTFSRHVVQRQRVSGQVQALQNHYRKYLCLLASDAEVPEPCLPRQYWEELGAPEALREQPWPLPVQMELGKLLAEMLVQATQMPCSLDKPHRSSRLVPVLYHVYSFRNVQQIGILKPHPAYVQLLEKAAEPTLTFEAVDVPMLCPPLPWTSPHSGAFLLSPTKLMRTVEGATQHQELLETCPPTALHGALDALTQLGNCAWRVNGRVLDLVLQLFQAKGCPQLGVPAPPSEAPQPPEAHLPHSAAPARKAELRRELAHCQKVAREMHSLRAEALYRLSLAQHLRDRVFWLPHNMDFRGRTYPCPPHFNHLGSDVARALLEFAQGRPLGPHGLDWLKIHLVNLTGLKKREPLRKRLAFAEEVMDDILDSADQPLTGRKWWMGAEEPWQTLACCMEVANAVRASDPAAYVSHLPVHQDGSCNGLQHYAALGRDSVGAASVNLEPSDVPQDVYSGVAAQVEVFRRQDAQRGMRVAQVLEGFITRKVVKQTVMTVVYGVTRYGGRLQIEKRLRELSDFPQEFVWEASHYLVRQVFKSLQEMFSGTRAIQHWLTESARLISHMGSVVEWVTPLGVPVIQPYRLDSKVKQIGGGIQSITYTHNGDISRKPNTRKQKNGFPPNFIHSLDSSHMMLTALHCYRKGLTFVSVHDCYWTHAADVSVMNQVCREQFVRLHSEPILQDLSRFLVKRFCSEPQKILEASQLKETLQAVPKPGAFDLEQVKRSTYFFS

In order of falling IC50:
1. Cc1ccccc1-c1cc(=O)oc2cc(CC(=O)O)ccc12 [Example 233, 2-(2-oxo-4-(o-tolyl)-2H-chromen-7-yl) acetic acid]  5000 nM
2. Cc1ccccc1-c1cc(=O)oc2cc(N(C)[C@@H](C)CC(=O)O)ccc12 [Example 228, (S)-3-(methyl(2-oxo-4-(o-tolyl)-2H-chromen-7-yl)amino)butanoic acid]  200 nM
3. Cc1ccccc1-c1cc(=O)oc2cc(N(C)[C@H](C)CC(=O)O)ccc12 [Example 230, (R)-3-(methyl(2-oxo-4-(o-tolyl)-2H-chromen-7-yl)amino)butanoic acid]  200 nM
4. Cc1ccccc1-c1cc(=O)oc2cc(CN(C)C(=O)C3CCC(C(=O)O)CC3)ccc12 (stereo not shown) [Example 229, 4-(methyl((2-oxo-4-(o-tolyl)-2H-chromen-7-yl)methyl)carbamoyl)cyclohexane-1-carboxylic acid]  100 nM

— patent US20250326732A1 (Pretzel Therapeutics, Inc., priority 2021, published 2025)
